# Assays:
# [1] = system: pigweed; assay: Test B pre/postemergence pigweed; format: in vivo, Amaranthus retroflexus
# Procedure, shortened: (§1)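 Test chemicals in a non-phytotoxic solvent mixture with surfactant were sprayed preemergence onto planted seeds and postemergence onto plants 2 to 18 cm tall (1- to 4-leaf stage). After twelve to sixteen days in a greenhouse, injury was visually rated against untreated controls from 0 (no effect) to 10 (complete control).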
# [2] = system: rape; assay: Test B pre/postemergence rape; format: in vivo, Brassica napus
# Procedure, shortened: as §1
# [3] = system: soybean; assay: Test B pre/postemergence soybean; format: in vivo, Glycine max
# Procedure, shortened: as §1
# [4] = system: sugar beet; assay: Test B pre/postemergence sugar beet; format: in vivo, Beta vulgaris; settings: for Sugarbeets plant response rating (0 to 10 scale): 0 is no effect
# Procedure, shortened: as §1
# [5] = system: winter wheat; assay: Test E winter wheat; format: in vivo, Triticum aestivum; settings: Postemergence
# Procedure, shortened: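 Compounds formulated in non-phytotoxic solvent mixture with surfactant; for postemergence, sprayed on plants at 1- to 4-leaf stage grown in 60:40 sandy loam/greenhouse potting mix. Kept in greenhouse ~21 to 28 days, then visually rated against untreated controls.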
# [6] = system: blackgrass; assay: Test E blackgrass; format: in vivo, Alopecurus myosuroides; settings: Preemergence
# [7] = system: green foxtail; assay: Test E green foxtail; format: in vivo, Setaria viridis; settings: Preemergence
# [8] = system: Italian ryegrass; assay: Test E Italian ryegrass; format: in vivo, Lolium multiflorum; settings: Preemergence
# [9] = system: winter wheat; assay: Test E winter wheat; format: in vivo, Triticum aestivum; settings: Preemergence
# [10] = system: wild oat; assay: Test E wild oat; format: in vivo, Avena fatua; settings: Preemergence
# [11] = system: winter barley; assay: Test E winter barley; format: in vivo, Hordeum vulgare; settings: Preemergence
# [12] = Postemergence, Rate 125 g/ha, scale of 0 to 10 where 0 is no effect and 10 is complete control
# [13] = Preemergence, Rate 62 g/ha, scale 0 to 10 (0 no effect, 10 complete control)
# [14] = Preemergence, Rate 125 g/ha, scale 0 to 10 (0 no effect, 10 complete control)
# [15] = Preemergence, Rate 250 g/ha, scale of 0 to 10 where 0 is no effect and 10 is complete control
# [16] = Preemergence, Rate 500 g/ha, scale 0 to 10 (0 no effect, 10 complete control)
# [17] = Rate 62 g/ha, Postemergence, scale of 0 to 10 where 0 is no effect and 10 is complete control
# [18] = Rate 250 g/ha, Postemergence, scale 0 to 10, 0 is no effect, 10 is complete control
# [19] = Rate 500 g/ha, Postemergence, scale 0 to 10, 0 no effect, 10 complete control
# [20] = Preemergence, Rate 125 g/ha, 10 is complete control
# [21] = Rate 62 g/ha, 0 to 100 scale, 0 no effect, 100 complete control
# [22] = Rate 125 g/ha, 0 to 100 scale (0 no effect, 100 complete control)
# [23] = Rate 500 g/ha, 0 to 100 scale where 0 is no effect and 100 is complete control
# [24] = Preemergence, Rate 125 g/ha, 0 is no effect, 10 is complete control
# [25] = Preemergence, Rate 250 g/ha, scale 0 to 10, 0 is no effect, 10 is complete control
# [26] = Rate 500 g/ha, Postemergence, scale 0 to 10
smiles,measurement,setting,value
CCn1c(=O)on(C(=O)N(c2ccc(F)cc2F)C(C)C)c1=O [Compound 116],Redroot pigweed plant response rating,[1]; [12],0
same,Redroot pigweed plant response rating,[1]; [13],10
same,"Plant response rating, Redroot pigweed",[1]; [14],10
same,"Plant response rating, Redroot pigweed",[1]; [15],10
same,Redroot pigweed plant response rating,[1]; [16],10
same,Redroot pigweed plant response rating,[1]; [17],0
same,"Plant response rating, Redroot pigweed",[1]; [18],8
same,Redroot pigweed plant response rating,[1]; [19],8
same,Rape plant response rating,[2]; [12],0
same,Rape plant response rating,"[2]; Postemergence, Rate 250 g/ha, scale 0 to 10, 0 no effect, 10 complete control",8
same,Rape plant response rating,[2]; [13],6
same,"Plant response rating, Rape",[2]; [14],9
same,"Plant response rating, Rape",[2]; [15],10
same,Rape plant response rating,[2]; [16],10
same,Rape plant response rating,[2]; [17],0
same,Rape plant response rating,[2]; [19],9
same,Soybean plant response rating,[3]; [12],6
same,Soybean plant response rating,[3]; [13],0
same,"Plant response rating, Soybean",[3]; [14],7
same,"Plant response rating, Soybean",[3]; [15],9
same,Soybean plant response rating,[3]; [16],9
same,Soybean plant response rating,[3]; [17],3
same,"Plant response rating, Soybean",[3]; [18],6
same,Soybean plant response rating,[3]; [19],8
same,Sugarbeets plant response rating,[4]; [12],3
same,Sugarbeets plant response rating,[4]; [13],9
same,Sugarbeets plant response rating (0 to 10 scale),[4]; [20],10
same,"Plant response rating, Sugarbeets",[4]; [15],10
same,Sugarbeets plant response rating,[4]; [16],10
same,Sugarbeets plant response rating,[4]; [17],2
same,"Plant response rating, Sugarbeets",[4]; [18],8
same,Sugarbeets plant response rating,[4]; [19],8
same,"Plant response rating, Wheat (winter)","[5]; Rate 62 g/ha, 0 to 100 scale",20
same,"Plant response rating, Wheat (winter)","[5]; Rate 125 g/ha, 0 to 100 scale",10
same,"Plant response rating, Wheat (winter)","[5]; Rate 250 g/ha, 0 to 100 scale (0 no effect, 100 complete control)",45
same,"Plant response rating, Wheat (winter)","[5]; Rate 500 g/ha, 0 to 100 scale, 0 no effect, 100 complete control",10
same,"Plant response rating, Blackgrass",[6]; [21],40
same,"Plant response rating, Blackgrass",[6]; [22],50
same,"Plant response rating, Blackgrass","[6]; Rate 250 g/ha, 0 to 100 scale",45
same,"Plant response rating, Blackgrass",[6]; [23],100
same,"Plant response rating, Green foxtail",[7]; [21],65
same,"Plant response rating, Green foxtail",[7]; [22],50
same,"Plant response rating, Green foxtail","[7]; Rate 250 g/ha, 0 to 100 scale",100
same,"Plant response rating, I. Ryegrass",[8]; [21],50
same,"Plant response rating, I. Ryegrass",[8]; [22],30
same,"Plant response rating, I. Ryegrass","[8]; Rate 250 g/ha, 0 to 100 scale",60
same,"Plant response rating, I. Ryegrass",[8]; [23],100
same,"Plant response rating, Wheat (winter)",[9]; [21],30
same,"Plant response rating, Wheat (winter)",[9]; [22],55
same,"Plant response rating, Wheat (winter)","[9]; Rate 250 g/ha, 0 to 100 scale",30
same,"Plant response rating, Wheat (winter)",[9]; [23],100
same,"Plant response rating, Wild oat",[10]; [21],20
same,"Plant response rating, Wild oat",[10]; [22],30
same,"Plant response rating, Wild oat",[10]; [23],80
same,"Plant response rating, Barley (winter)",[11]; [21],10
same,"Plant response rating, Barley (winter)",[11]; [22],30
same,"Plant response rating, Barley (winter)","[11]; Rate 250 g/ha, 0 to 100 scale",70
same,"Plant response rating, Barley (winter)",[11]; [23],80
CC(C)N(C(=O)n1oc(=O)n(CCCl)c1=O)c1ccc(F)cc1 [Compound 148],Redroot pigweed plant response rating,[1]; [12],2
same,Redroot pigweed plant response rating,[1]; [13],7
same,Redroot pigweed plant response rating (0 to 10 scale),[1]; [24],9
same,Redroot pigweed plant response rating,[1]; [25],9
same,Redroot pigweed plant response rating,[1]; [16],10
same,Redroot pigweed plant response rating,[1]; [17],2
same,Redroot pigweed plant response rating,[1]; [26],5
same,Rape plant response rating,[2]; [12],2
same,Rape plant response rating,[2]; [13],0
same,Rape plant response rating (0 to 10 scale),[2]; [24],0
same,Rape plant response rating,[2]; [25],6
same,Rape plant response rating,[2]; [16],9
same,Rape plant response rating,[2]; [17],1
same,"Plant response rating, Rape",[2]; [18],3
same,Rape plant response rating,[2]; [26],4
same,Soybean plant response rating,[3]; [12],4
same,Soybean plant response rating,[3]; [13],0
same,Soybean plant response rating (0 to 10 scale),[3]; [24],0
same,Soybean plant response rating,[3]; [25],0
same,Soybean plant response rating,[3]; [16],0
same,Soybean plant response rating,[3]; [17],4
same,"Plant response rating, Soybean",[3]; [18],4
same,Soybean plant response rating,[3]; [26],5
same,Sugarbeets plant response rating,[4]; [12],3
same,Sugarbeets plant response rating,[4]; [13],4
same,Sugarbeets plant response rating (0 to 10 scale),[4]; [20],6
same,Sugarbeets plant response rating,[4]; [25],8
same,Sugarbeets plant response rating,[4]; [16],10
same,Sugarbeets plant response rating,[4]; [17],2
same,"Plant response rating, Sugarbeets",[4]; [18],4
same,Sugarbeets plant response rating,[4]; [26],4
same,"Plant response rating, Wheat (winter)","[5]; Rate 62 g/ha, 0 to 100 scale",0
same,"Plant response rating, Wheat (winter)","[5]; Rate 125 g/ha, 0 to 100 scale",10
same,Wheat (winter) plant response rating,"[5]; Rate 250 g/ha, 0 to 100 scale where 0 is no effect and 100 is complete control",80
same,"Plant response rating, Blackgrass",[6]; [21],20
same,"Plant response rating, Blackgrass",[6]; [22],50
same,Blackgrass plant response rating (0 to 100 scale),[6]; Rate 250 g/ha,50
same,"Plant response rating, Green foxtail",[7]; [21],20
same,"Plant response rating, Green foxtail",[7]; [22],30
same,Green foxtail plant response rating (0 to 100 scale),[7]; Rate 250 g/ha,55
same,"Plant response rating, I. Ryegrass",[8]; [21],20
same,"Plant response rating, I. Ryegrass",[8]; [22],20
same,I. Ryegrass plant response rating (0 to 100 scale),[8]; Rate 250 g/ha,30
same,"Plant response rating, Wheat (winter)",[9]; [21],0
same,"Plant response rating, Wheat (winter)",[9]; [22],0
same,Wheat (winter) plant response rating (0 to 100 scale),[9]; Rate 250 g/ha,0
same,"Plant response rating, Wild oat",[10]; [21],10
same,"Plant response rating, Wild oat",[10]; [22],15
same,Wild oat plant response rating (0 to 100 scale),[10]; Rate 250 g/ha,40
same,"Plant response rating, Barley (winter)",[11]; [21],10
same,"Plant response rating, Barley (winter)",[11]; [22],10
same,Barley (winter) plant response rating (0 to 100 scale),[11]; Rate 250 g/ha,10

# — patent publication US6737383B1, “Herbicidal oxadiazolidines” (priority 1999, dated 2004)
